Experimental data from patent publication US11274124B2, “Tubulysin analogues as anticancer agents and payloads for antibody-drug conjugates and methods of treatment therewith” (William Marsh Rice University, priority 2017, dated 2022).
Where two headings read alike, the source gives them in different places.

What was measured:
[1] = tested on: MES SA (uterine sarcoma cell line); experiment: In vitro cytotoxicity assay (CellTiter-Glo, 72 hours), MES SA; type: cell-based; conditions: Homo sapiens, MES-SA, 72 h
[2] = tested on: HEK 293T (human embryonic kidney cancer cell line); experiment: In vitro cytotoxicity assay (CellTiter-Glo, 72 hours), HEK 293T; type: cell-based; conditions: Homo sapiens, HEK-293T, 72 h
[3] = tested on: MES SA DX (MES SA cell line with marked multi-drug resistance); experiment: In vitro cytotoxicity assay (CellTiter-Glo, 72 hours), MES SA DX; conditions: for IC50: Homo sapiens, MES-SA, 72 h
[4] = tested on: MES SA, MES SA DX and HEK 293T cells; experiment: In vitro cytotoxicity assay, structure-activity discussion over the cell lines tested; conditions: refers to Tables 2 and 3
[5] = read-out: MES SA, IC50 Value in nM
[6] = read-out: HEK 293T, IC50 Value in nM
[7] = read-out: MES SA DX, IC50 Value in nM

| Compound | IC50 ([1]; read-out: MES SA, IC50) | IC50 [1, 5] | IC50 ([2]; read-out: HEK 293T, IC50) | IC50 [2, 6] | IC50 ([3]; read-out: MES SA DX, IC50) | IC50 [3, 7] | cytotoxicity potency (in words, structure-activity discussion) [4] | cytotoxicities against the marked drug resistant cancer cell line MES SA DX (in words) [3] |
| --- | --- | --- | --- | --- | --- | --- | --- | --- |
| CC(=O)O[C@H](C[C@H](C(C)C)N(C)C(=O)[C@@H](NC(=O)[C@H]1CCCCN1C)C(C)C)c1nc(C(=O)N[C@@H](Cc2ccccc2)C[C@H](C)C(=O)O)c(C(C)C)s1 [Tb73, (2S,4R)-4-[({2-[(1R,3R)-1-Acetoxy-4-methyl-3-{methyl[(2S)-3-methyl-2-({[(2R)-1-methylpiperidin-2-yl]carbonyl}amino)butanoyl]amino}pentyl]-5-isopropyl-1,3-thiazol-4-yl}carbonyl)amino]-2-methyl-5-phenylpentanoic acid] | 1.28 nM | 1.28 nM | 0.16 nM | 0.16 nM | 44.7 nM | 44.7 nM | significant loss of potency |  |
| COC(=O)[C@@H](C)C[C@H](Cc1ccccc1)NC(=O)c1nc([C@@H](C[C@H](C(C)C)N(C)C(=O)[C@@H](NC(=O)[C@H]2CCCCN2C)C(C)C)OC(C)=O)sc1C [Tb66, Methyl (2S,4R)-4-[({2-[(1R,3R)-1-acetoxy-4-methyl-3-{methyl[(2S)-3-methyl-2-({[(2R)-1-methyl-piperidin-2-yl]carbonyl}amino)butanoyl]amino}pentyl]-5-methyl-1,3-thiazol-4-yl}carbonyl)amino]-2-methyl-5-phenylpentanoate] |  | 1.03 nM |  | 0.773 nM |  | > 1000 nM | some loss of potency |  |
| CCOC(=O)[C@@H](C)C[C@H](Cc1ccccc1)NC(=O)c1csc([C@@H](C[C@H](C(C)C)N(C)C(=O)CNC(=O)[C@H]2CCCCN2C)OC(C)=O)n1 [Tb88, Ethyl (2S,4R)-4-[({2-[(1R,3R)-1-acetoxy-4-methyl-3-{methyl[({[(2R)-1-methylpiperidin-2-yl]carbonyl}amino)acetyl]amino}pentyl]-1,3-thiazol-4-yl}carbonyl)amino]-2-methyl-5-phenylpentanoate] |  | 458 nM |  | 494 nM |  | > 2500 nM | no significant activity |  |
| COC(=O)[C@@H](C)C[C@H](Cc1ccccc1)NC(=O)c1nc([C@@H](C[C@H](C(C)C)N(C)C(=O)[C@@H](NC(=O)[C@H]2CCCN2C)C(C)C)OC(C)=O)sc1C [Tb70, Methyl (2S,4R)-4-[({2-[(1R,3R)-1-acetoxy-4-methyl-3-{methyl[(2S)-3-methyl-2-({[(2R)-1-methyl-pyrrolidin-2-yl]carbonyl}amino)butanoyl]amino}pentyl]-5-methyl-1,3-thiazol-4-yl}carbonyl)amino]-2-methyl-5-phenylpentanoate] |  | 3.11 nM |  | 2.32 nM |  | > 1000 nM | significant loss of potency |  |
| CC[C@H](C)[C@H](NC(=O)[C@H]1CCCCN1C)C(=O)N(C)[C@H](C[C@@H](O)c1nc(C(=O)N[C@@H](Cc2ccccc2)C[C@H](C)C(=O)O)cs1)C(C)C [Tb58, (2S,4R)-4-[({2-[(1R,3R)-1-Hydroxy-4-methyl-3-{methyl[(2S,3S)-3-methyl-2-({[(2R)-1-methylpiperidin-2-yl]carbonyl}amino)pentanoyl]amino}pentyl]-1,3-thiazol-4-yl}carbonyl)amino]-2-methyl-5-phenylpentanoic acid] |  | > 1000 nM |  | > 1000 nM |  | > 1000 nM | significant reduction in potency |  |
| CCOC(=O)[C@@H](C)C[C@H](Cc1ccccc1)NC(=O)c1csc([C@@H](C[C@H](C(C)C)N(C)C(=O)[C@H](CCC(C)C)NC(=O)[C@H]2CCCCN2C)OC(C)=O)n1 [Tb97, Ethyl (2S,4R)-4-[({2-[(1R,3R)-1-acetoxy-4-methyl-3-{methyl[(2S)-5-methyl-2-({[(2R)-1-methyl-piperidin-2-yl]carbonyl}amino)hexanoyl]amino}pentyl]-1,3-thiazol-4-yl}carbonyl)amino]-2-methyl-5-phenylpentanoate] |  | 4.65 nM |  | 2.87 nM |  | > 1000 nM | lack of or significantly lower cytotoxicities |  |
| COC(=O)[C@@H](C)C[C@H](Cc1ccccc1)NC(=O)c1nc([C@@H](C[C@H](C(C)C)N(C)C(=O)[C@@H](NC(=O)[C@H]2CCCCN2C)C(C)C)OC(C)=O)sc1C(C)C [Tb72, Methyl (2S,4R)-4-[({2-[(1R,3R)-1-acetoxy-4-methyl-3-{methyl[(2S)-3-methyl-2-({[(2R)-1-methyl-piperidin-2-yl]carbonyl}amino)butanoyl]amino}pentyl]-5-isopropyl-1,3-thiazol-4-yl}carbonyl)-amino]-2-methyl-5-phenylpentanoate] |  | 11.7 nM |  | 4.02 nM |  | > 70 nM | significant loss of potency |  |
| CCC(C)(C)[C@H](NC(=O)[C@H]1CCCCN1C)C(=O)N(C)[C@H](C[C@@H](OC(C)=O)c1nc(C(=O)N[C@@H](Cc2ccccc2)C[C@H](C)C(=O)O)cs1)C(C)C [Tb109, (2S,4R)-4-[({2-[(1R,3R)-1-Acetoxy-3-{[(2S)-3,3-dimethyl-2-({[(2R)-1-methylpiperidin-2-yl]car-bonyl}amino)pentanoyl](methyl)amino}-4-methylpentyl]-1,3-thiazol-4-yl}carbonyl)amino]-2-methyl-5-phenylpentanoic acid] | 0.36 nM | 0.36 nM | 0.01 nM | 0.01 nM | 1.39 nM | 1.39 nM | exceptional potencies | relatively potent (low nanomolar) |
| COC(=O)[C@@H](C)C[C@H](Cc1ccc(F)cc1)NC(=O)c1csc([C@@H](C[C@H](C(C)C)N(C)C(=O)[C@@H](NC(=O)[C@H]2CCCCN2C)C2CC2)OC(C)=O)n1 [Tb101, Methyl (2S,4R)-4-[({2-[(1R,3R)-1-acetoxy-3-{[(2S)-2-cyclopropyl-2-({[(2R)-1-methylpiperidin-2-yl]-carbonyl}amino)acetyl](methyl)amino}-4-methylpentyl]-1,3-thiazol-4-yl}carbonyl)amino]-5-(4-fluorophenyl)-2-methylpentanoate] |  | > 1000 nM |  | > 1000 nM |  | > 1000 nM | loss of activity |  |
| CCCCN1CCCC[C@@H]1C(=O)N[C@H](C(=O)N(C)[C@H](C[C@@H](OC(C)=O)c1nc(C(=O)N[C@H]2CC[C@H](C(=O)O)CC2)cs1)C(C)C)C(C)C [Tb55, trans-4-[({2-[(1R,3R)-1-Acetoxy-3-{[(2S)-2-({[(2R)-1-butylpiperidin-2-yl]carbonyl}amino)-3-methylbutanoyl](methyl)amino}-4-methylpentyl]-1,3-thiazol-4-yl}carbonyl)amino]cyclohexanecarboxylic acid] |  | > 1000 nM |  | > 1000 nM |  | > 1000 nM | insignificant or low biological activity |  |
| CCCCN1CCCC[C@@H]1C(=O)N[C@H](C(=O)N(C)[C@H](C[C@@H](OC(C)=O)c1nc(C(=O)N[C@H]2CC[C@H](C(=O)OC)CC2)cs1)C(C)C)C(C)C [Tb54, Methyl trans-4-[({2-[(1R,3R)-1-acetoxy-3-{[(2S)-2-({[(2R)-1-butylpiperidin-2-yl]carbonyl}amino)-3-methylbutanoyl](methyl)amino}-4-methylpentyl]-1,3-thiazol-4-yl}carbonyl)amino]cyclohexanecarboxylate] |  | > 1000 nM |  | > 1000 nM |  | > 1000 nM | insignificant or low biological activity |  |
| CCOC(=O)[C@@H](C)C[C@H](Cc1ccccc1)NC(=O)c1csc([C@@H](C[C@H](C(C)C)N(C)C(=O)[C@H](CCC(C)C)NC(=O)[C@H]2CCCN2C)OC(C)=O)n1 [Tb98, Ethyl (2S,4R)-4-[({2-[(1R,3R)-1-acetoxy-4-methyl-3-{methyl[(2S)-5-methyl-2-({[(2R)-1-methyl-pyrrolidin-2-yl]carbonyl}amino)hexanoyl]amino}pentyl]-1,3-thiazol-4-yl}carbonyl)amino]-2-meth-yl-5-phenylpentanoate] |  | 41.8 nM |  | 26.5 nM |  | 393 nM | lack of or significantly lower cytotoxicities |  |
| COC(=O)CC[C@H](Cc1ccccc1)NC(=O)c1csc([C@@H](C[C@H](C(C)C)N(C)C(=O)[C@@H](NC(=O)[C@H]2CCCCN2C)C(C)C)OC(C)=O)n1 [Tb105, Methyl 4-{[(2-{1-acetoxy-4-methyl-3-[methyl(3-methyl-2-{[(1-methylpiperidin-2-yl)carbonyl]-amino}butanoyl)amino]pentyl}-1,3-thiazol-4-yl)carbonyl]amino}-5-phenylpentanoate] |  | 2.94 nM |  | 1.53 nM |  | > 1000 nM | considerable loss of activity |  |
| CC[C@H](C)[C@H](NC(=O)[C@H]1CCCCN1C)C(=O)N(C)[C@H](CCc1nc(C(=O)N[C@@H](Cc2ccccc2)C[C@H](C)C(=O)O)cs1)C(C)C [PTb-D43, pretubulysin D, reference compound] |  |  |  |  |  |  | significant reduction in potency |  |
| CC[C@H](C)[C@H](NC(=O)[C@H]1CCCCN1C)C(=O)N(C)[C@H](CCc1nc(C(=O)N[C@@H](Cc2ccccc2)C[C@H](C)C(=O)OC)cs1)C(C)C [PTb-D42] |  |  |  |  |  |  | significant reduction in potency |  |
